# Measured values from patent publication US10035790B2, “RORγ modulators” (BRISTOL-MYERS SQUIBB COMPANY, priority 2012, dated 2018).
# Read-outs that look alike come from different tables or passages of the source.
# Molecular target: T1, ligand binding domain of human RORγ (A262-S507) (Homo sapiens, UniProt P51449)
# T1 construct: made in house; host or cells: E. coli
# T1 sequence (P51449 262-507): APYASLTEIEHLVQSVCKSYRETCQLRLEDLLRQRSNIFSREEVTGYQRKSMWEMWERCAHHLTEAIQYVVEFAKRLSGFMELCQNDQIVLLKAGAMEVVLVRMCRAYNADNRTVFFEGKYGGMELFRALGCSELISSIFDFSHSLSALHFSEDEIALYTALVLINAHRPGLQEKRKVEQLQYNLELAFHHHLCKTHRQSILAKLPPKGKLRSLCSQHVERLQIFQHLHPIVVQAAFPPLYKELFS
# Experiment: General RORγ SPA binding assay (competition with [3H]25-hydroxycholesterol)
# Conditions: inhibition of [3H]25-hydroxycholesterol binding
# Procedure, shortened: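 Scintillation counts from copper His-tag SPA beads (4 mg/mL, 30 min) gave percent inhibition of radioligand binding, from which IC50 values are derived. The E. coli-expressed His-tagged domain (50 nM) is first exposed to compound for 15 min at room temperature in PBS containing 0.5% fatty acid free BSA.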
# [1] = RORγ SPA binding assay, read-out: IC50
IC50 [1],SMILES,"IC50 (IC50, RORγ SPA binding assay)"
338 nM,"Cc1cc(C)cc(CN(C)C(=O)c2cnc(C)nc2C2CCN(C(=O)Cc3c(F)cccc3F)CC2)c1 [Compound A113, 4-(1-(2-(2,6-Difluorophenyl)acetyl)piperidin-4-yl)-N-(3,5-dimethylbenzyl)-N,2-dimethylpyrimidine-5-carboxamide]",
3 nM,"Cc1cc(C)cc(CNC(=O)c2cnc(C)nc2C2C=CN(C(=O)Cc3c(F)cccc3F)CC2)c1 (stereo not shown) [Compound A114, 4-(1-(2-(2,6-Difluorophenyl)acetyl)-1,2,3,4-tetrahydropyridin-4-yl)-N-(3,5-dimethylbenzyl)-2-methylpyrimidine-5-carboxamide]",
342 nM,"Cc1cc(C)cc(CNC(=O)c2cnc(C)nc2C2CCN(CC(=O)c3ccccc3Cl)CC2)c1 [Compound A115, 4-(1-(2-(2-Chlorophenyl)-2-oxoethyl)piperidin-4-yl)-N-(3,5-dimethylbenzyl)-2-methylpyrimidine-5-carboxamide]",
37.1 nM,"Cc1cc(C)cc(CNC(=O)c2cnc(C)nc2C2CCN(C(=O)C(F)(F)c3c(F)cccc3F)CC2)c1 [Compound A116, 4-{1-[(2,6-Difluorophenyl)(difluoro)acetyl]piperidin-4-yl}-N-[(3,5-dimethylphenyl)methyl]-2-methylpyrimidine-5-carboxamide]",
253 nM,"Cc1cc(C)cc(CNC(=O)c2cnc(C)nc2C2CCN(C(=O)C(F)(F)c3ccccc3)CC2)c1 [Compound A117, 4-{1-[Difluoro(phenyl)acetyl]piperidin-4-yl}-N-[(3,5-dimethylphenyl)methyl]-2-methylpyrimidine-5-carboxamide]",
51.6 nM,"Cc1cc(C)cc(CNC(=O)c2cnc(C)nc2C2CCN(C(=O)C(F)(F)c3ccccc3F)CC2)c1 [Compound A118, 4-{1-[Difluoro(2-fluorophenyl)acetyl]piperidin-4-yl}-N-[(3,5-dimethylphenyl)methyl]-2-methylpyrimidine-5-carboxamide]",
6.2 nM,"Cc1cc(C)cc(CNC(=O)c2cnc(C)nc2C2CCN(C(=O)Oc3ccccc3Cl)CC2)c1 [Compound A119, 2-Chlorophenyl 4-[5-({[(3,5-dimethylphenyl)methyl]amino}carbonyl)-2-methylpyrimidin-4-yl]piperidine-1-carboxylate]",
6 nM,"Cc1cc(C)cc(CNC(=O)c2cnc(C)nc2C2CCN(C(=O)Oc3c(F)cccc3F)CC2)c1 [Compound A120, 2,6-Difluorophenyl 4-[5-({[(3,5-dimethylphenyl)methyl]amino}carbonyl)-2-methylpyrimidin-4-yl]piperidine-1-carboxylate]",
58.4 nM,"Cc1nc(C)c(C(=O)NCc2ccnc(C(F)(F)F)n2)c(C2CCN(C(=O)Cc3c(F)cccc3F)CC2)n1 [Compound A121, 4-{1-[(2,6-Difluorophenyl)acetyl]piperidin-4-yl}-2,6-dimethyl-N-{[2-(trifluoromethyl)pyrimidin-4-yl]methyl}pyrimidine-5-carboxamide]",
116 nM,"Cc1nc(C)c(C(=O)NCc2ccnc(C(F)(F)F)n2)c(C2CCN(C(=O)Nc3c(F)cccc3F)CC2)n1 [Compound A122, 4-(1-{[(2,6-difluorophenyl)amino]carbonyl}piperidin-4-yl)-2,6-dimethyl-N-{[2-(trifluoromethyl)pyrimidin-4-yl]methyl}pyrimidine-5-carboxamide]",
,"Cc1nc(C)c(C(=O)NCc2ccnc(C(F)(F)F)n2)c(C2CCN(C(=O)Oc3c(F)cccc3F)CC2)n1 [Compound A123, 2,6-Difluorophenyl 4-{2,6-dimethyl-5-[({[2-(trifluoromethyl)pyrimidin-4-yl]methyl}amino)carbonyl]pyrimidin-4-yl}piperidine-1-carboxylate]",5.4 nM
,"Cc1nc(C)c(C(=O)NCc2ccnc(C(F)(F)F)n2)c(C2CCN(C(=O)Oc3ccccc3F)CC2)n1 [Compound A124, 2-Fluorophenyl 4-{2,6-dimethyl-5-[({[2-(trifluoromethyl)pyrimidin-4-yl]methyl}amino)carbonyl]pyrimidin-4-yl}piperidine-1-carboxylate]",11.4 nM
,"Cc1nc(C)c(C(=O)NCc2ccnc(C(F)(F)F)n2)c(C2CCN(C(=O)Oc3ccccc3)CC2)n1 [Compound A125, Phenyl 4-{2,6-dimethyl-5-[({[2-(trifluoromethyl)pyrimidin-4-yl]methyl}amino)carbonyl]pyrimidin-4-yl}piperidine-1-carboxylate]",11.6 nM
,"Cc1nc(N)nc(C2CCN(C(=O)Oc3ccccc3F)CC2)c1C(=O)NCc1ccnc(C(F)(F)F)n1 [Compound A126, 2-Fluorophenyl 4-{2-amino-6-methyl-5-[({[2-(trifluoromethyl)pyrimidin-4-yl]methyl}amino)carbonyl]pyrimidin-4-yl}piperidine-1-carboxylate]",15.2 nM
54 nM,"C/C(=N\Oc1cccc(C(F)(F)F)c1)c1c(C)nc(C)nc1C1CCN(C(=O)Cc2c(F)cccc2F)CC1 [Compound B1, (1E)-1-(4-{1-[(2,6-Difluorophenyl)acetyl]piperidin-4-yl}-2,6-dimethylpyrimidin-5-yl)ethanone O-[3-(trifluoromethyl)phenyl]]",
444 nM,"C/C(=N/Oc1ccnc(C(F)(F)F)c1)c1c(C)nc(C)nc1C1CCN(C(=O)Cc2c(F)cccc2F)CC1 [Compound B2, (1Z)-1-(4-{1-[(2,6-Difluorophenyl)acetyl]piperidin-4-yl}-2,6-dimethylpyrimidin-5-yl)ethanone 0-[2-(trifluoromethyl)pyridin-4-yl]oxime]",
3.1 nM,"C/C(=N\Oc1cccc(C(F)(F)F)c1)c1cnc(C)nc1C1CCN(C(=O)Cc2c(F)cccc2F)CC1 [Compound B3, (E)-2-(2,6-Difluorophenyl)-1-(4-(2-methyl-5-(1-(3-(trifluoromethyl)phenoxyimino)ethyl)pyrimidin-4-yl)piperidin-1-yl)ethanone]",
137 nM,"C/C(=N/Oc1cccc(C(F)(F)F)c1)c1cnc(C)nc1C1CCN(C(=O)Cc2c(F)cccc2F)CC1 [Compound B4, (Z)-2-(2,6-Difluorophenyl)-1-(4-(2-methyl-5-(1-(3-(trifluoromethyl)phenoxyimino)ethyl)pyrimidin-4-yl)piperidin-1-yl)ethanone]",
2.5 nM,"C/C(=N\Oc1cccc(Cl)c1)c1cnc(C)nc1C1CCN(C(=O)Cc2c(F)cccc2F)CC1 [Compound B5, (E)-1-(4-(5-(1-((3-chlorophenoxy)imino)ethyl)-2-methylpyrimidin-4-yl)piperidin-1-yl)-2-(2,6-difluorophenyl)ethanone]",
1930 nM,"C/C(=N/Oc1cccc(Cl)c1)c1cnc(C)nc1C1CCN(C(=O)Cc2c(F)cccc2F)CC1 [Compound B6, (Z)-1-(4-(5-(1-((3-chlorophenoxy)imino)ethyl)-2-methylpyrimidin-4-yl)piperidin-1-yl)-2-(2,6-difluorophenyl)ethanone]",
10.6 nM,"C/C(=N\Oc1cccc(OC(F)(F)F)c1)c1cnc(C)nc1C1CCN(C(=O)Cc2c(F)cccc2F)CC1 [Compound B7, (E)-2-(2,6-difluorophenyl)-1-(4-(2-methyl-5-(1-((3-(trifluoromethoxy)phenoxy)imino)ethyl)pyrimidin-4-yl)piperidin-1-yl)ethanone]",
1500 nM,"C/C(=N/Oc1cccc(OC(F)(F)F)c1)c1cnc(C)nc1C1CCN(C(=O)Cc2c(F)cccc2F)CC1 [Compound B8, (Z)-2-(2,6-difluorophenyl)-1-(4-(2-methyl-5-(1-((3-(trifluoromethoxy)phenoxy)imino)ethyl)pyrimidin-4-yl)piperidin-1-yl)ethanone]",
2.7 nM,"C/C(=N\Oc1cc(C)cc(C)c1)c1cnc(C)nc1C1CCN(C(=O)Cc2c(F)cccc2F)CC1 [Compound B9, (E)-2-(2,6-difluorophenyl)-1-(4-(5-(1-((3,5-dimethylphenoxy)imino)ethyl)-2-methylpyrimidin-4-yl)piperidin-1-yl)ethanone]",
1670 nM,"C/C(=N/Oc1cc(C)cc(C)c1)c1cnc(C)nc1C1CCN(C(=O)Cc2c(F)cccc2F)CC1 [Compound B10, (Z)-2-(2,6-difluorophenyl)-1-(4-(5-(1-((3,5-dimethylphenoxy)imino)ethyl)-2-methylpyrimidin-4-yl)piperidin-1-yl)ethanone]",
1.7 nM,"C/C(=N\Oc1cccc(C)c1)c1cnc(C)nc1C1CCN(C(=O)Cc2c(F)cccc2F)CC1 [Compound B11, (E)-2-(2,6-difluorophenyl)-1-(4-(2-methyl-5-(1-((m-tolyloxy)imino)ethyl)pyrimidin-4-yl)piperidin-1-yl)ethanone]",
2.2 nM,"C/C(=N\Oc1cc(F)cc(Cl)c1)c1cnc(C)nc1C1CCN(C(=O)Cc2c(F)cccc2F)CC1 [Compound B12, (E)-1-(4-(5-(1-((3-chloro-5-fluorophenoxy)imino)ethyl)-2-methylpyrimidin-4-yl)piperidin-1-yl)-2-(2,6-difluorophenyl)ethanone]",
4.7 nM,"C/C(=N\Oc1ccnc(C#N)c1)c1cnc(C)nc1C1CCN(C(=O)Cc2c(F)cccc2F)CC1 [Compound B13, (E)-4-(((1-(4-(1-(2-(2,6-difluorophenyl)acetyl)piperidin-4-yl)-2-methylpyrimidin-5-yl)ethylidene)amino)oxy)picolinonitrile]",
4.8 nM,"C/C(=N\Oc1ccnc(C(F)(F)F)c1)c1cnc(C)nc1C1CCN(C(=O)Cc2c(F)cccc2F)CC1 [Compound B14, (E)-2-(2,6-difluorophenyl)-1-(4-(2-methyl-5-(1-(((2-(trifluoromethyl)pyridin-4-yl)oxy)imino)ethyl)pyrimidin-4-yl)piperidin-1-yl)ethanone]",
